Laboratory results published in patent US11571426B2, “Compositions for preventing or treating lupus” (CHONG KUN DANG PHARMACEUTICAL CORP., priority 2017, dated 2023).
Marks after values point to notes of the source that are not given here. Each block holds one molecule with its values, some of them ahead of it.

Tests used:
[1] = system: CTLA4 (cytotoxic T-lymphocyte-associated protein 4) in the regulatory T cells; assay: CTLA4 expression in regulatory T cells (flow cytometry); assay type: cell-based, mouse; conditions: 1000 nM
Description: To identify if the compounds according to the present invention regulate a function of regulatory T cells in immune responses, compounds 255, 280, 374, 416 and 476 were treated, and then an expression level of an immune checkpoint receptor CTLA4 (cytotoxic T-lymphocyte-associated protein 4) in the regulatory T cells was measured by means of flow cytometry.
Specifically, a six-week old C57BL6 male mice were supplied from Central Lab Animal Inc., then acclimated for one week, and then used in an experiment. A spleen was isolated from the mouse, and then treated with collagenase D (Roche, 11088866001), such that splenocytes were isolated therefrom. CD4+CD25− T cells were isolated by means of a CD4+CD25+ regulatory T cell isolation kit (Miltenyi Biotec, 130-091-041), and then CD4+CD25− T cells (at a ratio of 5×10^5 cells/well) were treated with an anti-CD3c/anti-CD28 mAb bead (T cell activation/expansion kit, Miltenyi Biotec, 130-093627) and a mouse recombinant TGF-β2 for six days, such that they were differentiated into iTreg. A test drug was simultaneously treated for six days, during which the cells were differentiated into iTreg. After that, the cells were incubated by means of anti-CD^4/anti-CD25 mAb (eBioscience, 25-0042-82, 17-0251-82) at 4° C. for 20 minutes, and then labeling was performed. […]

[2] = system: TNFα secretion in LPS-stimulated human monocyte cell lines (THP-1); assay: Suppression of TNFα secretion in LPS-stimulated THP-1 (ELISA); assay type: cell-based
Description: To identify the efficacy of the inventive compounds on suppressing a TNFα secretion in immune responses, suppression of TNFα production, which was achieved by a treatment with compounds 374, 461, 500, 530 and 532 according to the present invention in LPS-stimulated human monocyte cell lines (THP-1), was quantified by means of an enzyme immuno-assay (ELISA).
Specifically, the THP-1 cell lines (ATCC) were cultured in an RPMI-1640 medium comprising 10% FBS. The cell lines were divided into a 24 well plate at a ratio of 1×10^5 cells per well, then treated with 100 ng/mL PMA (phorbol 12-myristate 13-acetate) for 24 hours, and then differentiated into macrophage. Then, the culture medium was replaced with a new one, then treated with a test drug for 24 hours, and then treated again with 10 ng/mL LPS (E. Coli, O55:B5) for four hours for stimulation. After that, supernatant was taken and used to measure the amount of TNFα secreted from the cells by means of a Human TNFα Instant ELISA kit (eBioscience, BMS223INST) according to a protocol provided by a manufacturer.

NZB/W F1 female mice [3] = assay: Serum cytokine level (Milliplex MAP kit) in SLE disease mouse; assay type: in vivo; conditions: group P, 5 mg/kg/day i.p., n = 13
Description: (§1) 80 NZB/W F1 female mice (four weeks old) were purchased from Jackson Laboratory and maintained in an SPF breeding room with five mice per cage. Their weight and urine protein were measured at 24 weeks after birth (right before administration), and then all the animals except those having too much urine protein were divided into groups as shown in a table 2 below such that the urine protein and weight might be evenly distributed among the groups.
(§2) Then, the mice were administered as described in the table 2 once a day for about 19 weeks from 24 weeks after birth to 42 weeks after birth.
(§3) The fresh urine of mice was collected before and after administration every two weeks, while blood collection was performed before and after administration every four weeks. The serum was prepared by centrifugation of the collected blood and then kept at −70° C.
To analyze an effect of the inventive pharmaceutical composition on a change in a serum cytokine level in the SLE disease mouse, a level of GM-CSF, IFN-γ, IL-1α, IL-1β, IL-10, IL-12(p70), IL-15, IL-17a, IL-2, IL-4, IL-6, TNF-α, […], IL-22 and IL-23 in serum was measured by means of a Mouse cytokine Milliplex MAP kit (Merck Millipore), wherein the results thereof were shown in a table 3.
Data obtained from groups were compared using a Kruskal-Wallis (†p<0.05) *p<0.05 versus C group (Mann-Whitney U-test)

NZB/W F1 female mice [4] = assay: Proteinuria and UP/C in SLE model mouse; assay type: in vivo; conditions: positive control 5 mg/kg/day; 42 weeks old
Description: as §1, §2, §3
A urine creatinine concentration was obtained by diluting the urine 100-fold, then measuring the concentration thereof by means of a serum chemistry analyzer (Dri-CHEM 3000 colorimetric analyzer, Fujifilm), and then calibrating the measured value using a dilution factor.

NZB/W F1 female mice [5] = assay: Serum chemistry after long-term administration; assay type: in vivo, mouse; conditions: group P, 5 mg/kg/day i.p.; serum at autopsy
Description: as §1, §2
Data obtained from groups were compared using a Kruskal-Wallis (†p<0.05), *p<0.05 versus C group (Mann-Whitney U-test), ALT: alanine aminotransferase, AST: aspartate aminotransferase, ALP: alkaline phosphatase, TBIL: total bilirubin, TCHOL: total cholesterol, TG: triglyceride, TP: total protein, CPK: creatine phosphokinase)

NZB/W F1 female mice [6] = assay: T cell populations in spleen (FACS) in SLE disease mouse; assay type: in vivo; conditions: positive control 5 mg/kg/day; vs negative control
[7] = on increasing concentration from 100 nM to 300 nM

SMILES: O=C(NO)c1ccc(CN(C(=O)N2CCOCC2)c2cccc(Br)c2)cc1 [Compound 255, N-(3-bromophenyl)-N-(4-(hydroxycarbamoyl)benzyl)morpholine-4-carboxamide]
cytotoxicity [1]: severe cytotoxicity

SMILES: CCN1CCN(C(=O)N(Cc2ccc(C(=O)NO)cc2)c2cccc(C(F)(F)F)c2)CC1 [Compound 461, 4-ethyl-N-(4-(hydroxycarbamoyl)benzyl)-N-(3-(trifluoromethyl)phenyl)piperazine-1-carboxamide]
level of TNFα secretion ([2]; at both 100 nM and 300 nM): remarkably decreased

SMILES: O=C(NO)c1ccc(CN(C(=O)N2CCOCC2)c2cccc(CF)c2)cc1 [Compound 500, N-(3-(fluoromethyl)phenyl)-N-(4-(hydroxycarbamoyl)benzyl)morpholine-4-carboxamide]
level of TNFα secretion ([2]; at both 100 nM and 300 nM): remarkably decreased

SMILES: O=C(NO)c1ccc(CN(C(=O)N2CCOCC2)c2cccc(F)c2)cc1 [Compound 530, N-(3-fluorophenyl)-N-(4-(hydroxycarbamoyl)benzyl)morpholine-4-carboxamide]
level of TNFα secretion [2, 7]: drastically decreased

SMILES: O=C(NO)c1ccc(CN(C(=O)N2CCOCC2)c2cccc(C(F)(F)F)c2)c(F)c1 [Compound 532, N-(2-fluoro-4-(hydroxycarbamoyl)benzyl)-N-(3-(trifluoromethyl)phenyl)morpholine-4-carboxamide]
level of TNFα secretion [2, 7]: drastically decreased

ALP (NZB/W F1 female mice [5]): 207.45 ± 7.21 U/I | Albumin (NZB/W F1 female mice [5]): 2.52 ± 0.07* g/dl | Ca (NZB/W F1 female mice [5]): 9.35 ± 0.16 mg/dL | Glucose (NZB/W F1 female mice [5]): 189.27 ± 12.23 mg/dL | TBIL (NZB/W F1 female mice [5]): 0.41 ± 0.09 mg/dL | TCHOL (NZB/W F1 female mice [5]): 162.09 ± 8.97 mg/dL | TG (NZB/W F1 female mice [5]): 251.82 ± 29.19 mg/dL | TP (NZB/W F1 female mice [5]): 5.42 ± 0.11* g/dl
SMILES: C[C@H]1C[C@@H]2[C@H]([C@@H](O)C[C@@]3(C)[C@H]2CC[C@]3(O)C(=O)CO)[C@@]2(C)C=CC(=O)C=C12 [Methylprednisolone, reference compound]
IFN-γ in serum (NZB/W F1 female mice [3]): 0.07 ± 0.07 pg/mL | IL22 in serum (NZB/W F1 female mice [3]): 17.68 ± 4.49 pg/mL | IL-1α in serum (NZB/W F1 female mice [3]): 666.21 ± 146.22 pg/mL | IL-1β in serum (NZB/W F1 female mice [3]): 0.65 ± 0.65 pg/mL | IL-2 in serum (NZB/W F1 female mice [3]): 0.09 ± 0.09 pg/mL | IL-4 in serum (NZB/W F1 female mice [3]): 1.49 ± 0.06 pg/mL | IL-6 in serum (NZB/W F1 female mice [3]): 3.36 ± 0.92 pg/mL | IL-23 in serum (NZB/W F1 female mice [3]): 22.31 ± 17.13 pg/mL | TGF-β in serum (NZB/W F1 female mice [3]): 66007.78 ± 5207.83 pg/mL | incidence rate of severe proteinuria of 300 mg/dl or more (NZB/W F1 female mice [4]): 20% | ALT (NZB/W F1 female mice [5]): 24.09 ± 2.00* U/I | AST (NZB/W F1 female mice [5]): 52.09 ± 4.25* U/I | decrease of ratio of CD138+ cells (NZB/W F1 female mice [6]): 16.3%
